From ChEMBL document CHEMBL5543167, “Design, Synthesis, and Biological Evaluation of Novel EGFR PROTACs Targeting C797S Mutation” (J Med Chem, 2024)
pIC50: −log10 of the molar value. Activity calls are given as the source filed them. The rule behind the calls is not given here.

Tests used:
[1] = target: Cyclin-dependent kinase 16 (Homo sapiens) (UniProt Q00536); assay: Induction of CDK16 degradation in human H1975-TM cells at 50 nM incubated for 24 hrs; format: cell-based
[2] = MRT (0 to infinity) in male Sprague-Dawley rat at 5 mg/kg, iv measured after 24 hrs by LC-MS/MS analysis; format: ADME, organism-based; settings: in vivo
[3] = tested on: Protein cereblon/Epidermal growth factor receptor (Homo sapiens), P00533+Q96SW2 [UNDEFINED MUTATION]; assay: (§1) PROTAC activity at CRBN/EGFR exon 19 deletion mutant in human PC-9 cells assessed as induction of EGFR degradation incubated for 24 hrs by Western blot analysis; format: cell-based
[4] = target: Protein cereblon/Epidermal growth factor receptor (Homo sapiens, UniProt P00533+Q96SW2); assay: as §1; format: cell-based
[5] = tested on: H1975-TM; assay: Antitumor activity against human H1975-TM cells xenografted in BALB/c nude mouse assessed as increase in tumor necrosis at 25 to 100 mg/kg, po administered once daily for 31 days by H&E staining based light microscopic analysis; format: functional, organism-based; settings: dose 25-100 mg/kg, time 31.0 day
[6] = tested on: Mus musculus; assay: In vivo PROTAC activity at CRBN/EGFR L858R/T790M/C797S mutant in BALB/c nude mouse xenografted with human […] cells assessed as decrease in EGFR protein level in tumor at 25 to 100 mg/kg, po administered once daily for 31 days by Western blot analysis; format: functional, organism-based; settings: dose 25-100 mg/kg, time 31.0 day
[7] = tested on: H1975-TM; assay: Inhibition of colony formation in human H1975-TM cells harboring EGFR L858R/T790M/C797S mutant at 3.7 to 100 nM incubated for 14 days by crystal violet staining based analysis; format: functional, cell-based; settings: dose 3.7-100 nM, time 14.0 day
[8] = tested on: Protein cereblon/Epidermal growth factor receptor (Homo sapiens), P00533+Q96SW2 [L858R,T790M,C797S]; assay: (§2) PROTAC activity at CRBN/EGFR L858R/T790M/C797S mutant in human H1975-TM cells assessed as induction of EGFR degradation by measuring remaining activity at 100 nM preincubated for 24 hrs followed by compound washout and measured after 6 hrs by Western blot analysis (reference value: 100%); format: cell-based
[9] = tested on: Protein cereblon/Epidermal growth factor receptor (Homo sapiens), P00533+Q96SW2 [L858R,T790M]; assay: (§3) PROTAC activity at CRBN/EGFR L858R/T790M mutant in human NCI-H1975 cells assessed as induction of EGFR degradation incubated for 24 hrs by Western blot analysis; format: cell-based
[10] = target: Protein cereblon/Epidermal growth factor receptor (Homo sapiens, UniProt P00533+Q96SW2, T790M/L858R); assay: as §3; format: cell-based
[11] = Half-life in male Sprague-Dawley rat at 50 mg/kg, po measured after 24 hrs by LC-MS/MS analysis; format: ADME, organism-based; settings: in vivo
[12] = Cmax in male Sprague-Dawley rat at 50 mg/kg, po measured after 24 hrs by LC-MS/MS analysis; format: ADME, organism-based; settings: in vivo
[13] = tested on: Protein cereblon/Epidermal growth factor receptor (Homo sapiens), P00533+Q96SW2 [L858R,T790M,C797S]; assay: PROTAC activity at CRBN/EGFR L858R/T790M/C797S mutant in human H1975-TM cells assessed as induction of EGFR degradation by measuring remaining activity at 100 nM incubated for 12 hrs by Western blot analysis (reference value: 100%); format: cell-based
[14] = tested on: H1975-TM; assay: Induction of apoptosis in human H1975-TM cells harboring EGFR L858R/T790M/C797S mutant incubated for 24 hrs by Annexin V-FITC/PI staining based flow cytometric analysis; format: functional, cell-based; settings: dose 33-100 nM
[15] = Oral bioavailability in Sprague-Dawley rat at 50 mg/kg measured after 24 hrs by LC-MS/MS analysis; format: ADME, organism-based; settings: in vivo
[16] = tested on: Protein cereblon/Epidermal growth factor receptor (Homo sapiens), P00533+Q96SW2 [L858R,T790M,C797S]; assay: as §2, with “at 50” for “at 100”, “preincubated with MLN4924” for “preincubated”, “for 6” for “for 24”, “compound addition” for “compound washout”, “after 24” for “after 6”; format: cell-based
[17] = tested on: PC-9; assay: Antiproliferative activity against human PC-9 cells harboring EGFR exon 19 deletion mutant assessed as inhibition of cell proliferation incubated for 72 hrs by CCK8 assay; format: functional, cell-based; settings: PC-9, 72 h
[18] = AUC (0 to infinity) in male Sprague-Dawley rat at 50 mg/kg, po measured after 24 hrs by LC-MS/MS analysis; format: ADME, organism-based; settings: in vivo
[19] = target: Aurora kinase B (Homo sapiens) (UniProt Q96GD4); assay: Induction of AURKB degradation in human H1975-TM cells at 50 nM incubated for 24 hrs; format: cell-based
Aurora kinase B (Homo sapiens), sequence (Q96GD4 whole entry): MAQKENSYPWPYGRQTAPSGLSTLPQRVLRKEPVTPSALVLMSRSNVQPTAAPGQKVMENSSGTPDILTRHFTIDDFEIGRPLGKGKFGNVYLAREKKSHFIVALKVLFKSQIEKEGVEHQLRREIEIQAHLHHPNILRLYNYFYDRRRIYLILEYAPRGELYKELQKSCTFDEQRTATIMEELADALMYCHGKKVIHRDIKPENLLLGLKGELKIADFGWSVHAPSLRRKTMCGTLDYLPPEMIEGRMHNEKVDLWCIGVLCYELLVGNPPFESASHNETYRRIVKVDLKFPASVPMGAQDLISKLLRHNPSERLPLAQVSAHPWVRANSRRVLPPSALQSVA

[20] = tested on: Protein cereblon/Epidermal growth factor receptor (Homo sapiens), P00533+Q96SW2 [L858R,T790M,C797S]; assay: PROTAC activity at CRBN/EGFR L858R/T790M/C797S mutant in human H1975-TM cells assessed as induction of EGFR degradation by measuring remaining activity at 11 nM incubated for 24 hrs by Western blot analysis (reference value: 100%); format: cell-based
[21] = target: Hepatocyte growth factor receptor (Homo sapiens) (UniProt P08581); assay: Induction of MET degradation in human H1975-TM cells at 50 nM incubated for 24 hrs; format: cell-based
Hepatocyte growth factor receptor (Homo sapiens), sequence (P08581 whole entry): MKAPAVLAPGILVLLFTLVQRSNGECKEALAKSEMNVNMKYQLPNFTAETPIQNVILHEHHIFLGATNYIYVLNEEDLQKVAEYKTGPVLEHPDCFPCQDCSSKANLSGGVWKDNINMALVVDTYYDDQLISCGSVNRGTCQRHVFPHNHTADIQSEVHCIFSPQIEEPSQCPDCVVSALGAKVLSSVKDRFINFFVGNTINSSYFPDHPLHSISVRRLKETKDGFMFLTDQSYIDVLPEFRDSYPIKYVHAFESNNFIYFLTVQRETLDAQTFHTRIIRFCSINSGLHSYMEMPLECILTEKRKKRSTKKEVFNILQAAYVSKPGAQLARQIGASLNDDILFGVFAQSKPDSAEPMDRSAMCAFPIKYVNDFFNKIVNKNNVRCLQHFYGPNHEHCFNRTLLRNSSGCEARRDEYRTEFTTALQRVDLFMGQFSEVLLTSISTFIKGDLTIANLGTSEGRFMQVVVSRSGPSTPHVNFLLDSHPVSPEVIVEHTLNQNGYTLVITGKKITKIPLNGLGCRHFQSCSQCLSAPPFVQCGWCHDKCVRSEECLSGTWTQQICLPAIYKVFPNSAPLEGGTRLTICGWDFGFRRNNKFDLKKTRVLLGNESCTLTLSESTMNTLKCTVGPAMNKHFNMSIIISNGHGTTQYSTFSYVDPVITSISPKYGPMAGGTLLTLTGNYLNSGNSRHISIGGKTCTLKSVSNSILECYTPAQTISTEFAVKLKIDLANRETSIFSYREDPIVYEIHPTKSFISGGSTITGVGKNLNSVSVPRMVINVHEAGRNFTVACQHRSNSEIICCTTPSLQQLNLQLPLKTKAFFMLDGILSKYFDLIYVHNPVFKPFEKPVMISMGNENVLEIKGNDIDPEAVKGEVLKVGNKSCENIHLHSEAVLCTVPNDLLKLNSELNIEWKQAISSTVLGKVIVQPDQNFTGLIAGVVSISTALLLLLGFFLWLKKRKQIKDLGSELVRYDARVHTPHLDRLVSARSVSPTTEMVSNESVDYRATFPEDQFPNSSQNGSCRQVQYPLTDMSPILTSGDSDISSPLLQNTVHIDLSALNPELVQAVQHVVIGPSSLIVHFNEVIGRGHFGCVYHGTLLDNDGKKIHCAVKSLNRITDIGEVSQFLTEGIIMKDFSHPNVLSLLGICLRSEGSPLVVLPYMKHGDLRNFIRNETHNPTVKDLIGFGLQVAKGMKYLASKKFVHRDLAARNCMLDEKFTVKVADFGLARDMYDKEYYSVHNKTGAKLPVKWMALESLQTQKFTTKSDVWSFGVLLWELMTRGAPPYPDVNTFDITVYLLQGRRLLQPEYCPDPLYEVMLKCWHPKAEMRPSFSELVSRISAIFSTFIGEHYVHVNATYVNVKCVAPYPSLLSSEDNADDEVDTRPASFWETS

[22] = tested on: Protein cereblon/Epidermal growth factor receptor (Homo sapiens), P00533+Q96SW2 [L858R,T790M,C797S]; assay: PROTAC activity at CRBN/EGFR L858R/T790M/C797S mutant in human H1975-TM cells assessed as induction of EGFR degradation by measuring remaining activity at 33 nM incubated for 24 hrs by Western blot analysis (reference value: 100%); format: cell-based
[23] = target: Epidermal growth factor receptor (Homo sapiens) (UniProt P00533); assay: Inhibition of EGFR signaling in human H1975-TM cells harboring EGFR L858R/T790M/C797S mutant assessed as reduction in AKT activation by Western blot analysis; format: cell-based; settings: dose 1.2-300 nM
[24] = tested on: Protein cereblon/Epidermal growth factor receptor (Homo sapiens), P00533+Q96SW2 [L858R,T790M,C797S]; assay: PROTAC activity at CRBN/EGFR L858R/T790M/C797S mutant in human H1975-TM cells assessed as induction of EGFR degradation by measuring remaining activity at 50 nM incubated for 24 hrs by Western blot analysis (reference value: 100%); format: cell-based
[25] = tested on: Protein cereblon/Epidermal growth factor receptor (Homo sapiens), P00533+Q96SW2 [L858R,T790M,C797S]; assay: PROTAC activity at CRBN/EGFR L858R/T790M/C797S mutant in human H1975-TM cells assessed as induction of EGFR degradation by measuring remaining activity at 300 nM incubated for 24 hrs by Western blot analysis (reference value: 100%); format: cell-based
[26] = tested on: H1975-TM; assay: Induction of cell cycle arrest in human H1975-TM cells harboring EGFR L858R/T790M/C797S mutant assessed as accumulation of cells at G0/G1 phase at 5 to 60 nM incubated for 24 hrs by RNase/PI staining based analysis; format: functional; settings: dose 5-60 nM
[27] = Toxicity in BALB/c nude mouse xenografted with human H1975-TM cells assessed as heart lesions at 25 to 100 mg/kg, po administered once daily for 31 days by Hematoxylin and eosin staining based analysis; format: organism-based; settings: in vivo, 744 h, dose 25-100 mg/kg, time 31 day
[28] = Toxicity in BALB/c nude mouse xenografted with human H1975-TM cells assessed as lung lesions at 25 to 100 mg/kg, po administered once daily for 31 days by Hematoxylin and eosin staining based analysis; format: organism-based; settings: in vivo, 744 h, dose 25-100 mg/kg, time 31 day
[29] = tested on: NCI-H1975; assay: Antiproliferative activity against human NCI-H1975 cells harboring EGFR L858R/T790M mutant assessed as inhibition of cell proliferation incubated for 72 hrs by CCK8 assay; format: functional, cell-based; settings: NCI-H1975, 72 h

Cyclin-dependent kinase 16 (Homo sapiens), sequence (Q00536 whole entry): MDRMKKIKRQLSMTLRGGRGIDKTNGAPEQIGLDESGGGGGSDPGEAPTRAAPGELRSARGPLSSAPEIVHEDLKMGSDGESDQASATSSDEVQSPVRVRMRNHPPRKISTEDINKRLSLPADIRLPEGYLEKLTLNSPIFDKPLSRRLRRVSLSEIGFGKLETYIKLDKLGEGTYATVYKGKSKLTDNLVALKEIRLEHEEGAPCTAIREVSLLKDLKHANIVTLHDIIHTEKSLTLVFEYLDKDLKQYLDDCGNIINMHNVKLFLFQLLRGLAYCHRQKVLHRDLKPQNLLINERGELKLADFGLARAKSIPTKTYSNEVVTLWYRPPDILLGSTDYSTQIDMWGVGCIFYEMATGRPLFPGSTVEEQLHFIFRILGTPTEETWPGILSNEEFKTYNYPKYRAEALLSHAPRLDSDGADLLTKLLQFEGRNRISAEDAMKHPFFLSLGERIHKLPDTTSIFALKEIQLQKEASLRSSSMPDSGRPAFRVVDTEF

CCS(=O)(=O)n1cc(-c2nc(Nc3ccc(N4CCN(CCCCCCC(=O)Nc5cccc6c5CN(C5CCC(=O)NC5=O)C6=O)CC4)cc3)ncc2C(F)(F)F)c2ccccc21 (centres undefined)
Activity [1]: Active
MRT inf [2]: 18.4 h
Activity [3]: Dose-Dependent Effect
DC50 [4]: 75.4 nM
Activity [5]: Active
Activity [6]: Active
inhibition [7]: Active
Activity [8]: 36.1%
Activity [9]: Dose-Dependent Effect
DC50 [10]: 88.5 nM
half-life [11]: 10.9 h
Cmax [12]: 57.8 ng/mL
Activity [13]: 44.5%
Activity [14]: Dose-Dependent Effect
bioavailability [15]: 4.2%
Activity [16]: 51.7%
pIC50 [17]: 7.76
AUC(0-inf) [18]: 750 ng·h/mL
Activity [19]: Active
Activity [20]: 33.5%
Activity [21]: Active
Activity [22]: 6.5%
inhibition [23]: Dose-Dependent Effect
Activity [24]: 5.8%
Activity [25]: 0.1%
Activity [26]: Active
Activity [27]: Non-Toxic
Activity [28]: Non-Toxic
pIC50 [29]: 7.34
